Tests used:
[1] = tested on: non-dependent recreational opioid users; assay: Human abuse liability study, intranasal: pharmacodynamics (VAS Drug Liking, pupillometry); type: in vivo; settings: 30 mg oxycodone HCl, Completer Set
Procedure: The formulation according to Inventive Example 1 was tested in a human abuse liability study and compared to a commercial product and to placebo (placebo API and placebo TRF formulation).
(§1) A single-site, randomized, double-blind, double-dummy, active-comparator, placebo-controlled, 3-way crossover trial in adult non-dependent recreational opioid users was conducted to compare the intranasal abuse potential of the tablet formulation according to Inventive Example 1 and standard formulations of oxycodone.
(§2) The primary objective of the study was to compare the intranasal abuse potential of a manipulated formulation according to Inventive Example 1 and oxycodone active pharmaceutical ingredient (API) powder (representing manipulated oxycodone IR standard formulation). Primary measure: Peak effect (Emax) for Drug Liking "at this moment" on visual analog scale (VAS). The secondary objectives were to compare the pharmacokinetics (PK), further pharmacodynamic (PD) parameters, and assess safety and tolerability.
The trial design is illustrated in Figure 3 (Single-site, randomized, double-blind, double-dummy, active-comparator, placebo-controlled, 3-way crossover trial in male and female non-dependent recreational opioid users with recent intranasal use experience).
Subjects received single treatments of Test, Comparator, and Placebo in a randomized, double-blind, double-dummy, 3-way crossover. […]

[2] = Human abuse liability study, intranasal: pharmacokinetics; type: in vivo; settings: inhaled or intranasal, intranasal (insufflated), plasma, PK Set, read-out: median tmax
Procedure: as §1, §2
Subjects received single treatments of Test, Comparator, and Placebo in a randomized, double-blind, double-dummy, 3-way crossover. Each single treatment consisted of two investigational medicinal products (IMPs), to be insufflated (snorted) in quick succession in fixed sequence:
Pharmacokinetics results are presented in Figure 7 relative to the insufflated amount of oxycodone, mean dose-normalized plasma-concentration-time profiles of Oxycodone - PK Set: […]

COc1ccc2c3c1O[C@H]1C(=O)CC[C@@]4(O)[C@@H](C2)N(C)CC[C@]314.Cl [Comparator (C), oxycodone HCl]
Peak effect (Emax) of Drug Liking "at this moment", Least Square Mean [1]: 75.0
Tmax [2]: 1.75 h

Reference: patent EP3698776A1, “TAMPER-RESISTANT DOSAGE FORM WITH IMMEDIATE RELEASE AND RESISTANCE AGAINST SOLVENT EXTRACTION” (Grünenthal GmbH, priority 2019, dated 2020)
